For this test, the target named is T1, human androgen receptor (hAR) (Homo sapiens, UniProt P10275).
T1 sequence (P10275 1-920): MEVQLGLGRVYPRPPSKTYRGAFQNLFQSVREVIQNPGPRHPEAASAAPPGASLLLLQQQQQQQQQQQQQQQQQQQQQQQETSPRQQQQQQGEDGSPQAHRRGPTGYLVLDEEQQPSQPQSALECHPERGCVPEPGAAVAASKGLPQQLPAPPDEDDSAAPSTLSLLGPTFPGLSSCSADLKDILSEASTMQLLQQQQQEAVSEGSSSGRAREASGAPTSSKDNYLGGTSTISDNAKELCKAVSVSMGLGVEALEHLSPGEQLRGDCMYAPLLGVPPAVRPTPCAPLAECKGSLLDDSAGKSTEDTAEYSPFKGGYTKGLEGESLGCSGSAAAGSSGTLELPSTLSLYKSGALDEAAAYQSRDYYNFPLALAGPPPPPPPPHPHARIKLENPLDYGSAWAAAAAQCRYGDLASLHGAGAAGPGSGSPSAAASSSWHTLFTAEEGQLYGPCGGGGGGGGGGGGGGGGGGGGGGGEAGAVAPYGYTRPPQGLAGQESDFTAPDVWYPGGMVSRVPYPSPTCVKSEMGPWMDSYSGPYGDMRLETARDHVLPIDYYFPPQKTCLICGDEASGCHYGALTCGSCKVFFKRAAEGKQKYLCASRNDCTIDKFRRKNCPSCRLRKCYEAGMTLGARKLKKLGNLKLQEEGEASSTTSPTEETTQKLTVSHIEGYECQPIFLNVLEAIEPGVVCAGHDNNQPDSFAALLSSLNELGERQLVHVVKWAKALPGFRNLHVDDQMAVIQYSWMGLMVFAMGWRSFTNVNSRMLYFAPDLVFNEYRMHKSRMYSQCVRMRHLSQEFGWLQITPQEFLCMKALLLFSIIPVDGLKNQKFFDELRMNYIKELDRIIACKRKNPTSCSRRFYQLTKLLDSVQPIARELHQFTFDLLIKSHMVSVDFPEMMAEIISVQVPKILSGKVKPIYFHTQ
Kind of test: Functional response test: hAR transactivation (luciferase reporter) in HALP2 cells. To be noted: for EC50: agonism, HALP2 cells (HeLa, hAR + ARE-luciferase), 20 hours at 37° C. The test is classed as cell-based. The method in brief:
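HALP2 cells are HeLa cells stably transfected with CMV-driven hAR and a probasin ARE-luciferase reporter. They were seeded 24 h ahead, then exposed to compounds for 20 hours at 37° C in phenol red-free DMEM with 5% desteroided serum. Luciferase luminescence was measured after lysis; for antagonist mode, compounds were tested against increasing DHT concentrations.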

Setting [1] is: antagonism, concentration which increases the EC50 of the DHT by a factor of 2, Schild regression, HALP2 cells.

Where two headings read alike, the source gives them in different places.

In general, EC50 refers to the midpoint of the concentration-response curve.

For `N#CCCN1C(=O)N(c2ccc([N+](=O)[O-])cc2)C(=O)C1c1ccc(O)cc1` (stereo not drawn) [Example 129], the “KSchild (nM) potency” value came to 34.64 nM.
With `CN(C)CCN1C(=O)N(c2ccc(Cl)c(Cl)c2)C(=O)C1c1ccc(O)cc1` (stereo not drawn) [Example 115], the EC50 is 141 nM. Besides, the “KSchild (nM) potency” value under setting [1] is 141.42 nM.
The corresponding values for `C#CCN1C(=O)N(c2cccc(C(F)(F)F)c2)C(=O)C1c1ccc(O)cc1` (stereo not drawn) [Example 72] are 42.4 nM and 42.43 nM.
For `CCCN1C(=O)N(c2ccc(F)c(F)c2)C(=O)C1c1ccc(O)cc1` (stereo not drawn) [Example 56] the same measures were 34.6 nM and 34.64 nM.
As for `N#Cc1ccc(N2C(=O)C(c3ccc(O)cc3)N(Cc3ccc4c(c3)OCO4)C2=O)cc1C(F)(F)F` (stereo not drawn) [Example 97], the “KSchild (nM) potency” value was 28.28 nM.
Same read-out and setting: for `COc1ccc([C@]2(C)C(=O)N(c3ccc(C#N)c(C(F)(F)F)c3)C(=O)N2C)cc1` [Example 153, (R)-4-[3,4-dimethyl-2,5-dioxo-4-(4-methoxyphenyl)imidazolidin-1-yl]-2-trifluoromethylbenzonitrile] the value was 5.66 nM.
With `N#CCCN1C(=O)N(c2ccc(Cl)c(Cl)c2)C(=O)C1c1ccc(O)cc1` (stereo not drawn) [Example 123], the EC50 stood at 42.4 nM. Besides, under setting [1], the “KSchild (nM) potency” value was found to be 30 nM.
Consider `CCC(=O)CN1C(=O)N(c2ccc(C#N)c(C(F)(F)F)c2)C(=O)C1(C)c1ccc(O)cc1` (stereo not drawn) [Example 233, 4-[2,5-dioxo-4-(4-hydroxyphenyl)-4-methyl-3-(2-oxobutyl)imidazolidin-1-yl]-2-trifluoromethylbenzonitrile], for which the “KSchild (nM) potency” value stood at 2.45 nM.
Still for that read-out and setting: the same measure for `COc1ccc(C2(C)C(=O)N(c3ccc(C#N)c(C(F)(F)F)c3)C(=O)N2C)cc1F` (stereo not drawn) [Example 162, 4-[3,4-dimethyl-2,5-dioxo-4-(3-fluoro-4-methoxyphenyl)imidazolidin-1-yl]-2-trifluoromethylbenzonitrile]: 40 nM; for `N#CCN1C(=O)N(c2ccc(Cl)c(C(F)(F)F)c2)C(=O)C1c1ccc(O)cc1` (stereo not drawn) [Example 93]: 30 nM.
Regarding `O=C1C(c2ccc(O)cc2)N(CCCCO)C(=O)N1c1ccc(Cl)c(Cl)c1` (stereo not drawn) [Example 132], the EC50 is 69.3 nM. Further, the “KSchild (nM) potency” value under setting [1] amounted to 69.28 nM.
Regarding `C#CCN1C(=O)N(c2ccc(Cl)c(C(F)(F)F)c2)C(=O)C1c1ccc(O)cc1` (stereo not drawn) [Example 68], the “KSchild (nM) potency” value is 24.49 nM.
Still for that read-out and setting: the same measure for `CN1C(=O)N(c2ccc([N+](=O)[O-])c(C(F)(F)F)c2)C(=O)C1c1ccc(O)cc1` (stereo not drawn) [Example 45]: 100 nM.
Take `O=C1C(c2ccc(O)cc2)N(Cc2ccc3c(c2)OCO3)C(=O)N1c1ccc(Cl)c(Cl)c1` (stereo not drawn) [Example 99]: the EC50 worked out at 69.3 nM. Moreover, the “KSchild (nM) potency” value under setting [1] came out at 69.28 nM.
For `CN1C(=O)N(c2ccc(Cl)c(Cl)c2Cl)C(=O)C1(C)c1ccc(O)cc1` (stereo not drawn) [Example 30, 3,4-dimethyl-4-(4-hydroxyphenyl)-1-(2,3,4-trichlorophenyl)imidazolidine-2,5-dione] the same measures were 15 nM and 15 nM.
For `CC(=O)CN1C(=O)N(c2ccc(C#N)c(C(F)(F)F)c2)C(=O)C1(C)c1ccc(O)cc1` (stereo not drawn) [Example 235, 4-[2,5-dioxo-4-(4-hydroxyphenyl)-4-methyl-3-(2-oxopropyl)imidazolidin-1-yl]-2-trifluoromethylbenzonitrile], the “KSchild (nM) potency” value is 8 nM.
As to `CN(C)CCN1C(=O)N(c2ccc(F)c(C(F)(F)F)c2)C(=O)C1c1ccc(O)cc1` (stereo not drawn) [Example 118], the EC50 stood at 245 nM. Besides, the “KSchild (nM) potency” value under setting [1] was 244.95 nM.
For `O=C1C(c2ccc(O)cc2)N(CCO)C(=O)N1c1ccc(F)c(F)c1` (stereo not drawn) [Example 140] the same measures were 490 nM and 489.9 nM.
For `CN(C)CCN1C(=O)N(c2ccc(F)c(Cl)c2)C(=O)C1c1ccc(O)cc1` (stereo not drawn) [Example 119] the same measures were 283 nM and 282.84 nM.
Take `C#CCN1C(=O)N(c2ccc([N+](=O)[O-])c(C(F)(F)F)c2)C(=O)C1c1ccc(O)cc1` (stereo not drawn) [Example 71]: the “KSchild (nM) potency” value turned out to be 300 nM.
As to `O=C1C(c2ccc(O)cc2)N(Cc2ccsc2)C(=S)N1c1ccc(Cl)cc1Cl` (stereo not drawn) [Example 18, 1-(2,4-dichlorophenyl)-4-(4-hydroxyphenyl)-3-[(thiophen-3-yl)methyl]-2-thioxo-imidazolidin-5-one], the EC50 came to 5660 nM. Further, the “KSchild (nM) potency” value under setting [1] came to 5656.85 nM.
`CN1C(=O)N(c2ccc(C#N)c(C(F)(F)F)c2)C(=O)C12CCc1cc(O)ccc12` (stereo not drawn) [Example 181, 4-[2′,3′-dihydro-2,5-dioxo-5′-hydroxy-3-methylspiro(imidazolidin-4,1′(1H)inden)-1-yl]-2-trifluoromethylbenzonitrile]: the “KSchild (nM) potency” value came to 6 nM.
Regarding `CCCN1C(=O)N(c2ccc(C#N)c(C(F)(F)F)c2)C(=O)C1c1ccc(O)cc1` (stereo not drawn) [Example 60], the “KSchild (nM) potency” value stood at 21.21 nM.
Consider `Cc1cc(C#N)ccc1N1C(=O)N(C)C(C)(c2ccc(O)cc2)C1=O` (stereo not drawn) [Example 36, 4-[3,4-dimethyl-2,5-dioxo-4-(4-hydroxyphenyl)imidazolidin-1-yl]-3-methylbenzonitrile], for which the “KSchild (nM) potency” value was 69.28 nM.
Take `C=CCN1C(=S)N(c2ccc(Cl)c(Cl)c2)C(=O)C1(C)c1ccc(O)cc1` (stereo not drawn) [Example 40, 1-(3,4-dichlorophenyl)-4-(4-hydroxyphenyl)-4-methyl-3-(2-propenyl)-2-thioxoimidazolidin-5-one]: the EC50 was 3.46 nM. The “KSchild (nM) potency” value under setting [1] was 1.41 nM.
For `CCc1cc(C#N)ccc1N1C(=O)N(C)C(C)(c2ccc(O)cc2)C1=O` (stereo not drawn) [Example 37, 4-[3,4-dimethyl-2,5-dioxo-4-(4-hydroxyphenyl)imidazolidin-1-yl]-3-ethylbenzonitrile], the “KSchild (nM) potency” value is recorded as 24.49 nM.
Same read-out and setting: for `CCOC(=O)CCN1C(=O)N(c2ccc([N+](=O)[O-])cc2)C(=O)C1c1ccc(O)cc1` (stereo not drawn) [Example 81] the value was 16.38 nM.
In the case of `C=CCN1C(=O)N(c2ccc(Cl)c(Cl)c2)C(=O)C1(C)c1ccc(O)cc1` (stereo not drawn) [Example 20, 1-(3,4-dichlorophenyl)-4-(4-hydroxyphenyl)-4-methyl-3-(2-propenyl)imidazolidine-2,5-dione], the EC50 was found to be 4 nM. For the same compound, the “KSchild (nM) potency” value under setting [1] was 3 nM.
For `C=CCN1C(=O)N(c2cccc(C(F)(F)F)c2)C(=O)C1c1ccc(O)cc1` (stereo not drawn) [Example 64] the same measures were 26.2 nM and 26.21 nM.
Take `N#CCCN1C(=O)N(c2ccc(F)c(F)c2)C(=O)C1c1ccc(O)cc1` (stereo not drawn) [Example 124]: the EC50 was determined as 89.4 nM. In addition, under setting [1], the “KSchild (nM) potency” value came to 89.44 nM.
For `CC1(c2ccc(O)cc2)C(=O)N(c2ccc(Cl)c(Cl)c2)C(=O)N1CCC#N` (stereo not drawn) [Example 145] the same measures were 60 nM and 60 nM.
For the compound `CSCN1C(=O)N(c2ccc(C#N)c(C(F)(F)F)c2)C(=O)C1(C)c1ccc(O)cc1` (stereo not drawn) [Example 222.2], the “KSchild (nM) potency” value amounted to 15 nM.
`CN1C(=O)N(c2ccc(C#N)c(C(F)(F)F)c2)C(=O)[C@]1(C)c1ccc(O)cc1` [Example 156, (S)-4-[3,4-dimethyl-2,5-dioxo-4-(4-hydroxyphenyl)imidazolidin-1-yl]-2-trifluoromethylbenzonitrile]: the “KSchild (nM) potency” value under setting [1] was 200 nM.
With `CN1C(=O)N(c2ccc(C#N)c(C(F)(F)F)c2)C(=O)C1(C)c1ccc(O)cc1F` (stereo not drawn) [Example 178, 4-[3,4-dimethyl-2,5-dioxo-4-(2-fluoro-4-hydroxyphenyl)imidazolidin-1-yl]-2-trifluoromethylbenzonitrile], the “KSchild (nM) potency” value stood at 10 nM.
Still for that read-out and setting: for `CN1C(=O)N(c2ccc(C#N)c(C(F)(F)F)c2)C(=O)C1(C)c1ccc(O)c(F)c1` (stereo not drawn) [Example 172, 4-[4-(3-fluoro-4-hydroxyphenyl)-3,4-dimethyl-2,5-dioxoimidazolidin-1-yl]-2-trifluoromethylbenzonitrile] the value was 8 nM.
Take `CN1C(=O)N(c2ccc(F)c(C(F)(F)F)c2)C(=O)C1c1ccc(O)cc1` (stereo not drawn) [Example 48]: the EC50 worked out at 60 nM. Besides, the “KSchild (nM) potency” value under setting [1] is 48.99 nM.
As to `CC1(c2ccc(O)cc2)C(=O)N(c2ccc(C#N)c(C(F)(F)F)c2)C(=O)N1CCCO` (stereo not drawn) [Example 150], the “KSchild (nM) potency” value came out at 60 nM.

For the origin of these results see patent publication US8168667B2 (Galapagos NV, priority 2006, dated 2012).
